One data set has as its target T1, cGMP PDE5 (Homo sapiens, UniProt O76074).
T1 construct: The required PDE enzymes were isolated from a variety of sources, including human corpus cavernosum, human platelets; from tissue; host or cells: human corpus cavernosum tissue or human platelets
Nature of the data set: In vitro cGMP PDE5 inhibitory activity (IC50). It counts as biochemical. As to the method: The compounds of the present invention are potent and selective cGMP PDE5 inhibitors. In vitro PDE inhibitory activities against cyclic guanosine 3′,5′-monophosphate (cGMP) and cyclic adenosine 3′,5′-monophosphate (cAMP) phosphodiesterases were determined by measurement of their IC50 values (the concentration of compound required for 50% inhibition of enzyme activity).
The required PDE enzymes were isolated from a variety of sources, including human corpus cavernosum, human platelets, human cardiac ventricle, human skeletal muscle and human and canine retina, essentially by the method of W. J. Thompson and M. M. Appleman (Biochem., 1971, 10, 311). In particular, the cGMP-specific PDE (PDE5) and the cGMP-inhibited cAMP PDE (PDE3) were obtained from human corpus cavernosum tissue or human platelets; the cGMP-stimulated PDE (PDE2) was obtained from human corpus cavernosum or human platelets; the calcium/calmodulin (Ca/CAM)-dependent PDE (PDE1) from human cardiac ventricle; the cAMP-specific PDE (PDE4) from recombinant clone or human skeletal muscle; and the photoreceptor PDE (PDE6) from canine or human retina. Phosphodiesterases 7-11 were generated from full length human recombinant clones transfected into SF9 cells.
Assays were performed either using a modification of the “batch” method of W. J. Thompson et al. (Biochem., 1979, 18, 5228) or using a scintillation proximity assay for the direct detection of AMP/GMP using a modification of the protocol described by Amersham pic under product code TRKQ7090/7100. In summary, the effect of PDE inhibitors was investigated by assaying a fixed amount of enzyme in the presence of varying inhibitor concentrations and low substrate, (cGMP or cAMP in a 3:1 ratio unlabelled to [^3H]-labeled at a conc ˜½ Km) such that IC50 ≅Ki. The final assay volume was made up to 102 μl with assay buffer [20 mM Tris-HCl pH 7.4, 5 mM MgCl2, 1 mg/ml bovine serum albumin]. Reactions were initiated with enzyme, incubated for 30-60 min at 30° C. to give <30% substrate turnover and terminated with 50 μl yttrium silicate SPA beads (containing 3 mM of the respective unlabelled cyclic nucleotide for PDEs 3, 9 and 11). Plates were resealed and shaken for 20 min, after which the beads were allowed to settle for 30 min in the dark and then counted on a TopCount plate reader (Packard, Meriden, Conn.). Radioactivity units were converted to % activity of an uninhibited control (100%), plotted against inhibitor concentration and inhibitor IC50 values obtained using the ‘Fit Curve’ Microsoft Excel extension or inhouse equivalent.

[1] abbreviates: bounds for groups of Examples, read-out: IC50 values for the PDE5 enzyme.
Setting [2] is: in vitro cGMP PDE5 inhibitory activity, Table 1, read-out: IC50.

Structures can show the parent of a compound that is named as a salt. Where two headings read alike, the source gives them in different places.

For the compound `CCCCOc1ccc(S(C)(=O)=O)cc1-c1nc2c(CC)nn(Cc3ccccn3)c2c(=O)[nH]1` [Example 5, 5-[2-Butoxy-5-(methylsulfonyl)phenyl]-3-ethyl-1-(2-pyridinylmethyl)-1,6-dihydro-7H-pyrazolo[4,3-d]pyrimidin-7-one], the IC50 (usually the concentration that inhibits the measured activity by half) was < 10 nM at cGMP PDE5 (setting [1]) and 3.5 nM on cGMP PDE5 (setting [2]).

As to `CCc1nn(Cc2cccnn2)c2c(=O)[nH]c(-c3cc(S(C)(=O)=O)ccc3OCC(C)C)nc12` [Example 16, 3-Ethyl-5-[2-isobutoxy-5-(methylsulfonyl)phenyl]-1-(3-pyridazinylmethyl)-1,6-dihydro-7H-pyrazolo[4,3-d]pyrimidin-7-one], the melting point (in general, the temperature, or range, at which the solid turns liquid) was 231 to 234 °C. For the same compound, the IC50 at cGMP PDE5 (setting [1]) is < 10 nM. On cGMP PDE5 (setting [2]), the concentration for half-maximal inhibition (IC50) is 9.8 nM.

As to `CCc1n[nH]c2c(=O)[nH]c(-c3cc(S(C)(=O)=O)ccc3OCc3ccccn3)nc12` [Example 6, 3-Ethyl-5-[5-(methylsulfonyl)-2-(2-pyridinylmethoxy)phenyl]-1,6-dihydro-7H-pyrazolo[4,3-d]pyrimidin-7-one], the melting point is 283 to 286 °C.

In turn, `CCc1c2nc(-c3cc(S(C)(=O)=O)ccc3OCC(C)C)[nH]c(=O)c2nn1C1CCN(C(C)C)CC1` [Example 22, 3-Ethyl-5-[2-isobutoxy-5-(methylsulfonyl)phenyl]-2-(1-isopropyl-4-piperidinyl)-2,6-dihydro-7H-pyrazolo[4,3-d]pyrimidin-7-one] showed a melting point of 273 to 275 °C. Also, the 50% inhibitory concentration (IC50) on cGMP PDE5 (setting [2]) was 13.4 nM.

Turning to `CCCOc1ccc(S(=O)(=O)CC)cc1-c1nc2c(CC)nn(C[C@@H]3CCCN3C)c2c(=O)[nH]1` [Example 26, 3-Ethyl-5-[5-(ethylsulfonyl)-2-propoxyphenyl]-1-{[(2S)-1-methylpyrrolidinyl]methyl}-1,6-dihydro-7H-pyrazolo[4,3-d]pyrimidin-7-one], the IC50 on cGMP PDE5 (setting [2]) was 18.3 nM.

For `CCc1c2nc(-c3cc(S(C)(=O)=O)ccc3OCC(C)C)[nH]c(=O)c2nn1C1CCN(C)CC1` [Example 21, 3-Ethyl-5-[2-isobutoxy-5-(methylsulfonyl)phenyl]-2-(1-methyl-4-piperidinyl)-2,6-dihydro-7H-pyrazolo[4,3-d]pyrimidin-7-one], the melting point fell in the range of 292 to 295 °C. In addition, the IC50 at cGMP PDE5 (setting [2]) was found to be 12.5 nM.

For the compound `CCCOc1ccc(S(C)(=O)=O)cc1-c1nc2c(CC)nn(CCN(C(C)C)C(C)C)c2c(=O)[nH]1` [Example 24, 1-[2-(Diisopropylamino)ethyl]-3-ethyl-5-[5-(methylsulfonyl)-2-propoxyphenyl]-1,6-dihydro-7H-pyrazolo[4,3-d]pyrimidin-7-one], the IC50 on cGMP PDE5 (setting [1]) was < 10 nM; on cGMP PDE5 (setting [2]) it was 6.7 nM.

With `CCCCOc1ccc(S(C)(=O)=O)cc1-c1nc2c(CC)nn(Cc3ccccn3)c2c(=O)[nH]1` (as salt: potassium) [Example 5, 5-[2-Butoxy-5-(methylsulfonyl)phenyl]-3-ethyl-1-(2-pyridinylmethyl)-1,6-dihydro-7H-pyrazolo[4,3-d]pyrimidin-7-one], the melting point lay within 189 to 191 °C.

`CCc1nn(Cc2ccccn2)c2c(=O)[nH]c(-c3cc(S(C)(=O)=O)ccc3OCC(C)C)nc12` [Example 3, 3-Ethyl-5-[2-isobutoxy-5-(methylsulfonyl)phenyl]-1-(2-pyridinylmethyl)-1,6-dihydro-7H-pyrazolo[4,3-d]pyrimidin-7-one] had a melting point of 223 to 225 °C. The IC50 at cGMP PDE5 (setting [1]) was < 10 nM. Also, on cGMP PDE5 (setting [2]), the IC50 worked out at 1.5 nM.

Turning to `CCc1c2nc(-c3cc(S(C)(=O)=O)ccc3OCC(C)C)[nH]c(=O)c2nn1Cc1cccnn1` [Example 15, 3-Ethyl-5-[2-isobutoxy-5-(methylsulfonyl)phenyl]-2-(3-pyridazinylmethyl)-2,6-dihydro-7H-pyrazolo[4,3-d]pyrimidin-7-one], the melting point lay within 244 to 247 °C. For the same compound, on cGMP PDE5 (setting [1]), the concentration for half-maximal inhibition (IC50) was < 10 nM. Also, the IC50 at cGMP PDE5 (setting [2]) worked out at 7.3 nM.

Compound `CCc1nn(C2CN(C(C)C)C2)c2c(=O)[nH]c(-c3cc(S(C)(=O)=O)ccc3OCC(C)C)nc12` [Example 20] yielded a melting point of 206 to 209 °C. Besides, the IC50 at cGMP PDE5 (setting [2]) was found to be 13.7 nM.

As to `CCCOc1ccc(S(C)(=O)=O)cc1-c1nc2c(CC)n(CCN(C(C)C)C(C)C)nc2c(=O)[nH]1` [Example 25, 2-[2-(diisopropylamino)ethyl]-3-ethyl-5-[5-(methylsulfonyl)-2-propoxyphenyl]-2,6-dihydro-7H-pyrazolo[4,3-d]pyrimidin-7-one], the IC50 at cGMP PDE5 (setting [1]) was < 10 nM; at cGMP PDE5 (setting [2]), 5.4 nM.

`CCCCOc1ccc(S(C)(=O)=O)cc1-c1nc2c(CC)n(CCN3CCOCC3)nc2c(=O)[nH]1` [Example 8, 5-[2-Butoxy-5-(methylsulfonyl)phenyl]-3-ethyl-2-[2-(4-morpholinyl)ethyl]-2,6-dihydro-7H-pyrazolo[4,3-d]pyrimidin-7-one] registered a melting point of 235 to 238 °C. Also, the IC50 at cGMP PDE5 (setting [1]) was < 10 nM. Further, the IC50 at cGMP PDE5 (setting [2]) is 10 nM.

Compound `CCc1nn(Cc2ccccn2)c2c(=O)[nH]c(-c3cc(S(C)(=O)=O)ccc3OCCOC)nc12` [Example 4, 3-Ethyl-5-[2-(2-methoxyethoxy)-5-(methylsulfonyl)phenyl]-1-(2-pyridinylmethyl)-1,6-dihydro-7H-pyrazolo[4,3-d]pyrimidin-7-one] yielded a melting point of 166 to 167 °C.

Consider `CCc1nn(C[C@@H]2CCCN2C)c2c(=O)[nH]c(-c3cc(S(C)(=O)=O)ccc3OCC(C)C)nc12` [Example 13, 3-Ethyl-5-[2-isobutoxy-5-(methylsulfonyl)phenyl]-1-{[(2S)-1-methylpyrrolidinyl]methyl}-1,6-dihydro-7H-pyrazolo[4,3-d]pyrimidin-7-one], for which the melting point lay within 190 to 194 °C. In addition, the IC50 at cGMP PDE5 (setting [1]) is < 10 nM. Also, the IC50 at cGMP PDE5 (setting [2]) was determined as 6.3 nM.

For `CCCOc1ccc(S(C)(=O)=O)cc1-c1nc2c(CC)nn(Cc3ccccn3)c2c(=O)[nH]1` (as salt: potassium) [Example 11, 3-Ethyl-5-[5-(methylsulfonyl)-2-propoxyphenyl]-1-(2-pyridinylmethyl)-1,6-dihydro-7H-pyrazolo[4,3-d]pyrimidin-7-one], the melting point lay in the range of 209 to 211 °C.

Regarding `CCc1c2nc(-c3cc(S(C)(=O)=O)ccc3OCC(C)C)[nH]c(=O)c2nn1Cc1ccccn1` [Example 17, 3-Ethyl-5-[2-isobutoxy-5-(methylsulfonyl)phenyl]-2-(2-pyridinylmethyl)-2,6-dihydro-7H-pyrazolo[4,3-d]pyrimidin-7-one], the melting point fell in the range of 235 to 238 °C. Besides, the IC50 on cGMP PDE5 (setting [1]) is < 10 nM. The IC50 on cGMP PDE5 (setting [2]) was found to be 4.8 nM.

Consider `CCc1c2nc(-c3cc(S(C)(=O)=O)ccc3OCC(C)C)[nH]c(=O)c2nn1CCN1CCOCC1` [Example 10, 3-Ethyl-5-[2-isobutoxy-5-(methylsulfonyl)phenyl]-2-[2-(4-morpholinyl)ethyl]-2,6-dihydro-7H-pyrazolo[4,3-d]pyrimidin-7-one], for which the melting point lay in the range of 268 to 273 °C. In addition, the IC50 at cGMP PDE5 (setting [1]) was < 10 nM. In addition, the IC50 at cGMP PDE5 (setting [2]) came to 7.6 nM.

With `CCc1nn(Cc2nccn2C)c2c(=O)[nH]c(-c3cc(S(C)(=O)=O)ccc3OCC(C)C)nc12` [Example 7, 3-Ethyl-5-[2-isobutoxy-5-(methylsulfonyl)phenyl]-1-[(1-methyl-1H-imidazol-2-yl)methyl]-1,6-dihydro-7H-pyrazolo[4,3-d]pyrimidin-7-one], the melting point was 253 to 254 °C. Further, the IC50 at cGMP PDE5 (setting [1]) is < 10 nM. The IC50 at cGMP PDE5 (setting [2]) was found to be 1.7 nM.

`CCCOc1ncc(S(C)(=O)=O)cc1-c1nc2c(CC)nn(C[C@@H]3CCCN3C)c2c(=O)[nH]1` [Example 23, 3-Ethyl-1-{[(2S)-1-methylpyrrolidinyl]methyl}-5-[5-(methylsulfonyl)-2-propoxy-3-pyridinyl]-1,6-dihydro-7H-pyrazolo[4,3-d]pyrimidin-7-one] showed a melting point of 182 to 183 °C.

As for `CCCOc1ccc(S(C)(=O)=O)cc1-c1nc2c(CC)nn(C[C@@H]3CCCCN3C)c2c(=O)[nH]1` [Example 28, 3-Ethyl-1-{[(2S)-1-methylpiperidinyl]methyl}-5-[5-(methylsulfonyl)-2-propoxyphenyl]-1,6-dihydro-7H-pyrazolo[4,3-d]pyrimidin-7-one], the IC50 on cGMP PDE5 (setting [1]) is < 10 nM; on cGMP PDE5 (setting [2]), 3.6 nM.

For the compound `C=CCc1nc(CC)n2nc(-c3cc(S(C)(=O)=O)ccc3OCCCC)[nH]c(=O)c12` [Example 29], the melting point was 192 to 194 °C. For the same compound, on cGMP PDE5 (setting [1]), the concentration for half-maximal inhibition (IC50) is < 10 nM. Besides, the IC50 on cGMP PDE5 (setting [2]) stood at 6.7 nM.

For the origin of these results see US6770645B2, “Pharmaceutically active compounds” (Pfizer Inc., priority 2001, dated 2004).
